In assay [1] the target is T1, Cbl-b (Homo sapiens, UniProt Q13191).
T1 construct: Cbl-b-HiBit KI Jurkat Cells were purchased from Promega; host or cells: Cbl-b-HiBiT knock-in Jurkat cells
The assay can be described thus: Cbl-b Degradation Method A (FACS, anti-Cbl-b antibody staining). Format: cell-based. The note with it: Cbl-b-HiBit KI Jurkat Cells, incubated at least 20 hours; half maximal degradation; read-out: Cbl-b Degredation Method A IC50. An outline of the steps:
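Readout is flow cytometry of fixed, permeabilized cells immunostained for Cbl-b (primary 1:200, AF488 secondary). Cells were Cbl-b-HiBit knock-in Jurkat, exposed to compound ≥20 h at 37 °C; half-maximal degradation concentration (DC50) and maximal degradation (Dmax) calculated relative to control.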
(With HiBiT, luminescence reflects the tagged protein that the partner subunit can reach.)

Assay [2] addresses T1, Cbl-b. Briefly: Cbl-b Degradation Method B (Nano-Glo HiBiT lytic detection). Format: cell-based. Particulars: Cbl-b-HiBit KI Jurkat Cells, incubated at least 6-24 hours; for DC50: half maximal degradation, read-out: Cbl-b Degredation Method B IC50. An outline of the steps: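 An 11-point, 3-fold compound dilution was applied for 6-24 hours to Jurkat cells carrying HiBiT-tagged endogenous Cbl-b. Lytic HiBiT luminescence quantified residual protein. Outputs are DC50 and Dmax relative to DMSO control.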

The structures appear in SMILES notation.

T1 sequence (Q13191 whole entry): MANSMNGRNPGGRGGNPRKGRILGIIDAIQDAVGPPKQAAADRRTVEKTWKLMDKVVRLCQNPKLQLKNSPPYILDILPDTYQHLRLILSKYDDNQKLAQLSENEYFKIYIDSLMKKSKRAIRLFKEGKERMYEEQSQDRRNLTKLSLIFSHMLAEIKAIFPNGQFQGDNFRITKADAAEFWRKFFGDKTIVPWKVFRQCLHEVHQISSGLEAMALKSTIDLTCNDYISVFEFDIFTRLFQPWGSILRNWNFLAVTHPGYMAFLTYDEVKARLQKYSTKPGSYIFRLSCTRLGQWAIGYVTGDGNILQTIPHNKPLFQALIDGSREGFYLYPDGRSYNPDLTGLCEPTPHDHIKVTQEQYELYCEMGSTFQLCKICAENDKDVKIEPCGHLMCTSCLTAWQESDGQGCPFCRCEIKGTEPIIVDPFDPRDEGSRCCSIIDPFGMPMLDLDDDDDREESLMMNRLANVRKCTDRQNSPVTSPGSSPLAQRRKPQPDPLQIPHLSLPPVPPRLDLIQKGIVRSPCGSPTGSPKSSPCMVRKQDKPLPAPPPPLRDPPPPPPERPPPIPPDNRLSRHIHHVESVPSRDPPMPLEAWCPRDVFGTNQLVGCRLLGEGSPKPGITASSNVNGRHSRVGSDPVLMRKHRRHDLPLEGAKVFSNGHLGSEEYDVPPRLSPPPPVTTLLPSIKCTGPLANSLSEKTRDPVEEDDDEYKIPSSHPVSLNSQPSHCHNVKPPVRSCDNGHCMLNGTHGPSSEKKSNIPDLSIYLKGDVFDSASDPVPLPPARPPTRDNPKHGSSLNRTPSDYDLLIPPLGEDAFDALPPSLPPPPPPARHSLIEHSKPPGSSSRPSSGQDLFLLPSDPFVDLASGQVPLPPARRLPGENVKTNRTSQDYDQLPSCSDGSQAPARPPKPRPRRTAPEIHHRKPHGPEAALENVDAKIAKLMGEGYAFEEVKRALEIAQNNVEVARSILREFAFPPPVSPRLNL

Regarding `Cn1cnnc1CC1(c2cccc(N3Cc4c(cc(CN5CCC(CC6CN(c7ccc8c(c7)C(=O)N(C7CCC(=O)NC7=O)C8=O)C6)CC5)cc4C(F)(F)F)C3=O)c2)COC1` (stereo not shown) [Example 79, 2-(2,6-dioxopiperidin-3-yl)-5-{3-[(1-{[2-(3-{3-[(4-methyl-4H-1,2,4-triazol-3-yl)methyl]oxetan-3-yl}phenyl)-3-oxo-7-(trifluoromethyl)-2,3-dihydro-1H-isoindol-5-yl]methyl}piperidin-4-yl)methyl]azetidin-1-yl}-2,3-dihydro-1H-isoindole-1,3-dione], the DC50 in assay [1] and in assay [2] was over 500 nM throughout.
Regarding `Cn1cnnc1CC1(c2cccc(N3Cc4c(cc(CN5CCC(CN6CC7(CCN(c8ccc9c(c8)C(=O)N(C8CCC(=O)NC8=O)C9=O)CC7)C6)CC5)cc4C(F)(F)F)C3=O)c2)COC1` (stereo not shown) [Example 81, 2-(2,6-dioxopiperidin-3-yl)-5-{2-[(1-{[2-(3-{3-[(4-methyl-4H-1,2,4-triazol-3-yl)methyl]oxetan-3-yl}phenyl)-3-oxo-7-(trifluoromethyl)-2,3-dihydro-1H-isoindol-5-yl]methyl}piperidin-4-yl)methyl]-2,7-diazaspiro[3.5]nonan-7-yl}-2,3-dihydro-1H-isoindole-1,3-dione], the DC50 in assay [1] and in assay [2] was over 500 nM throughout.
Take `Cn1cnnc1CC1(c2cccc(N3Cc4c(cc(CN5CCC(CN6CCC(c7ccc8c(c7)C(=O)N(C7CCC(=O)NC7=O)C8=O)CC6)CC5)cc4C(F)(F)F)C3=O)c2)COC1` (stereo not shown) [Example 82, 2-(2,6-dioxopiperidin-3-yl)-5-{1-[(1-{[2-(3-{3-[(4-methyl-4H-1,2,4-triazol-3-yl)methyl]oxetan-3-yl}phenyl)-3-oxo-7-(trifluoromethyl)-2,3-dihydro-1H-isoindol-5-yl]methyl}piperidin-4-yl)methyl]piperidin-4-yl}-2,3-dihydro-1H-isoindole-1,3-dione]: the DC50 in assay [1] and in assay [2] was over 500 nM in each case.
For the compound `Cn1cnnc1CC1(c2cccc(N3Cc4c(cc(CN5CCC(CN6CC(C7CN(c8ccc9c(c8)C(=O)N(C8CCC(=O)NC8=O)C9=O)C7)C6)CC5)cc4C(F)(F)F)C3=O)c2)COC1` (stereo not shown) [Example 83, 2-(2,6-dioxopiperidin-3-yl)-5-{1′-[(1-{[2-(3-{3-[(4-methyl-4H-1,2,4-triazol-3-yl)methyl]oxetan-3-yl}phenyl)-3-oxo-7-(trifluoromethyl)-2,3-dihydro-1H-isoindol-5-yl]methyl}piperidin-4-yl)methyl]-[3,3′-biazetidin]-1-yl}-2,3-dihydro-1H-isoindole-1,3-dione], the DC50 in assay [1] and in assay [2] was over 500 nM throughout.
`Cn1cnnc1CC1(c2cccc(N3Cc4c(cc(CN5CCC(CN6CCC(COc7ccc8c(c7)C(=O)N(C7CCC(=O)NC7=O)C8=O)CC6)CC5)cc4C(F)(F)F)C3=O)c2)COC1` (stereo not shown) [Example 84, 2-(2,6-dioxopiperidin-3-yl)-5-({1-[(1-{[2-(3-{3-[(4-methyl-4H-1,2,4-triazol-3-yl)methyl]oxetan-3-yl}phenyl)-3-oxo-7-(trifluoromethyl)-2,3-dihydro-1H-isoindol-5-yl]methyl}piperidin-4-yl)methyl]piperidin-4-yl}methoxy)-2,3-dihydro-1H-isoindole-1,3-dione]: the DC50 in assay [1] and in assay [2] was over 500 nM each time.
In general, Dmax refers to the greatest extent of degradation seen. In the case of `C[C@H]1C[C@@H](CN2CCN(c3ccc4c(c3)C(=O)N(C3CCC(=O)NC3=O)C4=O)CC2)CN(Cc2cc3c(c(C(F)(F)F)c2)CN(c2cccc(C4(Cc5nncn5C)COC4)c2)C3=O)C1` (stereo partly drawn) [Example 85, 2-(2,6-dioxopiperidin-3-yl)-5-(4-{[(3R,5S)-5-methyl-1-{[2-(3-{3-[(4-methyl-4H-1,2,4-triazol-3-yl)methyl]oxetan-3-yl}phenyl)-3-oxo-7-(trifluoromethyl)-2,3-dihydro-1H-isoindol-5-yl]methyl}piperidin-3-yl]methyl}piperazin-1-yl)-2,3-dihydro-1H-isoindole-1,3-dione], the DC50 in assay [1] and in assay [2] was 5 to 50 nM each time. Further, the Dmax in assay [2] (maximum degradation observed, read-out: Cbl-b Degredation Method B Dmax (%)) is over 70%.

Source of the values: patent US20260184710A1, “CASITAS B-LINEAGE LYMPHOMA PROTOONCOGENE B (CBL-B) DEGRADING COMPOUNDS AND ASSOCIATED METHODS OF USE” (Arvinas Operations, Inc., priority 2022, published 2026).
